Test results reported in PMC5601486, “Identification of 4-phenylquinolin-2(1H)-one as a specific allosteric inhibitor of Akt” (Scientific Reports, 2017).

Experiments:
[1] = system: KIT-autoinhibited; test: KINOMEscan; conditions: 50000 nM
Experimental: KINOMEscan™ selectivity screen
(§2) The assay was perfor med at DiscoveRx Corporation according the methods published previously5. Briefly, Kinase-tagged T7 phage strains were grown in parallel in an E. coli host derived from the BL21 strain. E. coli were grown to log-phase and infected with T7 phage from a frozen stock and incubated with shaking at 32°C until lysis (90-150 minutes). The kinases were produced in HEK-293 cells and subsequently tagged with DNA for qPCR detection. Streptavidin-coated magnetic beads were treated with biotinylated small molecule ligands to generate affinity resins for kinase
(§3) inhibitor or DMSO control was performed in polypropylene 384-well plates for 1 hr at room temperature. After wash with PBS buffer containing 0.05% Tween 20, the beads were incubated in elution buffer (PBS containing 0.05 % Tween 20 and 0.5 μM non-biotinylated affinity ligand) for 30 minutes at room temperature. The kinase concentration in the eluates was measured by qPCR.

[2] = system: BIKE; test: KINOMEscan; conditions: 50000 nM
Experimental: KINOMEscan™ selectivity screen
The assay was perfor med at DiscoveRx Corporation according the methods published previously5. […] The kinases were produced in HEK-293 cells and subsequently tagged with DNA for qPCR detection. Streptavidin-coated magnetic beads were treated with biotinylated small molecule ligands to generate affinity resins for kinase
as §3

[3] = system: HPK1; test: KINOMEscan; conditions: 50000 nM
Experimental: KINOMEscan™ selectivity screen
as §2, §3

[4] = system: KIT(A829P); test: KINOMEscan; conditions: 50000 nM
Experimental: KINOMEscan™ selectivity screen
as §2, §3

[5] = system: WNK1; test: KINOMEscan; conditions: 50000 nM
Experimental: KINOMEscan™ selectivity screen
as §2, §3

[6] = system: TNNI3K; test: KINOMEscan; conditions: 50000 nM
Experimental: KINOMEscan™ selectivity screen
as §2, §3

[7] = system: TEC; test: KINOMEscan; conditions: 50000 nM
Experimental: KINOMEscan™ selectivity screen
(§4) Briefly, Kinase-tagged T7 phage strains were grown in parallel in an E. coli host derived from the BL21 strain. E. coli were grown to log-phase and infected with T7 phage from a frozen stock and incubated with shaking at 32°C until lysis (90-150 minutes). The kinases were produced in HEK-293 cells and subsequently tagged with DNA for qPCR detection. Streptavidin-coated magnetic beads were treated with biotinylated small molecule ligands to generate affinity resins for kinase
as §3

[8] = system: AKT2; test: KINOMEscan; conditions: 50000 nM
Experimental: KINOMEscan™ selectivity screen
as §4, §3

[9] = system: IRAK3; test: KINOMEscan; conditions: 50000 nM
Experimental: KINOMEscan™ selectivity screen
as §4, §3

[10] = system: ACVR1; test: KINOMEscan; conditions: 50000 nM
Experimental: KINOMEscan™ selectivity screen
as §2, §3

[11] = system: SRPK1; test: KINOMEscan; conditions: 50000 nM
Experimental: KINOMEscan™ selectivity screen
as §2, §3

[12] = system: Neuro 2A cells; test: MTS cell proliferation assay; assay type: cell-based, Mouse; conditions: 1 day
Experimental: (§1) Neuro 2A cells or NIH/3T3 cells (ATCC) were seeded at various confluency in a 96-well plate in 100 µL DMEM containing 5% FBS or 10% FBS with 1% penicillin streptomucin, respectively, at 37 °C in a 5% CO2 and 95% humidity incubator for 18 hr. To each well 1 µL inhibitor with various concentrations or DMSO was added. The final concentrations of the tested inhibitors were 0, 5, 10, 20, 40 and 80 µM for G7 and LY, and 0, 5, 10, 20, 40 and 80 nM for Torin1, based on their respective IC50 values (~µM for G7 and LY and ~ nM for Torin 1). After 24 hr, 20 µL of CellTiter 96® AQueous One Solution Reagent (Promega) were added. The plate was placed in the incubator for 2 h and absorbance at 490 nm was measured with a Synergy HT Microplate Reader (Bio-Tek).

[13] = system: CIT; test: KINOMEscan; conditions: 50000 nM
Experimental: KINOMEscan™ selectivity screen
(§5) The kinases were produced in HEK-293 cells and subsequently tagged with DNA for qPCR detection. Streptavidin-coated magnetic beads were treated with biotinylated small molecule ligands to generate affinity resins for kinase
as §3

[14] = system: CAMK2G; test: KINOMEscan; conditions: 50000 nM
Experimental: KINOMEscan™ selectivity screen
as §2, §3

[15] = system: LNCaP cells; test: MTS cell proliferation assay; assay type: cell-based; conditions: 1 day, 40% confluent
Experimental: as §1
Fig. S8. Effect of G7 on proliferation of LNCaP cells. Cells that were 40% confluent in RPMI-1640 medium containing 10% FBS were treated with inhibitors for 1 day and subjected to MTS assays. *, µM for both G7 and LY and nM for Torin1. Data represent means ± SEM (n=3). G7, 4-phenylquinolin-2(1H)-one, LY, LY294002.

[16] = system: PAK2; test: KINOMEscan; conditions: 50000 nM
Experimental: KINOMEscan™ selectivity screen
as §2, §3

[17] = system: ZAK; test: KINOMEscan; conditions: 50000 nM
Experimental: KINOMEscan™ selectivity screen
as §4, §3

[18] = system: MLK2; test: KINOMEscan; conditions: 50000 nM
Experimental: KINOMEscan™ selectivity screen
as §2, §3

[19] = system: PIK3CA(E545K); test: KINOMEscan; conditions: 50000 nM
Experimental: KINOMEscan™ selectivity screen
as §2, §3

[20] = system: ULK2; test: KINOMEscan; conditions: 50000 nM
Experimental: KINOMEscan™ selectivity screen
as §2, §3

[21] = system: PKAC-beta; test: KINOMEscan; conditions: 50000 nM
Experimental: KINOMEscan™ selectivity screen
as §2, §3

[22] = system: NIH/3T3 cells; test: MTS cell proliferation/viability assay; assay type: cell-based; conditions: no longer proliferating, in comparison to LY or Torin 1
Experimental: as §1

[23] = system: PIK3C2B; test: KINOMEscan; conditions: 50000 nM
Experimental: KINOMEscan™ selectivity screen
as §4, §3

[24] = system: DMPK; test: KINOMEscan; conditions: 50000 nM
Experimental: KINOMEscan™ selectivity screen
as §2, §3

[25] = system: CSNK1A1; test: KINOMEscan; conditions: 50000 nM
Experimental: KINOMEscan™ selectivity screen
as §2, §3

[26] = system: CDKL3; test: KINOMEscan; conditions: 50000 nM
Experimental: KINOMEscan™ selectivity screen
as §4, §3

[27] = system: MYLK; test: KINOMEscan; conditions: 50000 nM
Experimental: KINOMEscan™ selectivity screen
as §2, §3

[28] = system: PRKX; test: KINOMEscan; conditions: 50000 nM
Experimental: KINOMEscan™ selectivity screen
as §2, §3

[29] = system: MAP3K15; test: KINOMEscan; conditions: 50000 nM
Experimental: KINOMEscan™ selectivity screen
as §4, §3

[30] = system: YSK4; test: KINOMEscan; conditions: 50000 nM
Experimental: KINOMEscan™ selectivity screen
as §2, §3

[31] = system: PHKG2; test: KINOMEscan; conditions: 50000 nM
Experimental: KINOMEscan™ selectivity screen
as §4, §3

[32] = system: PRKCH; test: KINOMEscan; conditions: 50000 nM
Experimental: KINOMEscan™ selectivity screen
as §5, §3

[33] = system: EPHA8; test: KINOMEscan; conditions: 50000 nM
Experimental: KINOMEscan™ selectivity screen
as §2, §3

[34] = system: TYK2(JH2domain-pseudokinase); test: KINOMEscan; conditions: 50000 nM
Experimental: KINOMEscan™ selectivity screen
as §2, §3

[35] = system: FGFR3; test: KINOMEscan; conditions: 50000 nM
Experimental: KINOMEscan™ selectivity screen
as §2, §3

## Oc1cc(-c2ccccc2)c2ccccc2n1 [G7, 4-phenylquinolin-2(1H)-one]
[1]
  Percent Control: 77%
[2]
  Percent Control: 52%
[3]
  Percent Control: 98%
[4]
  Percent Control: 78%
[5]
  Percent Control: 97%
[6]
  Percent Control: 95%
[7]
  Percent Control: 71%
[8]
  Percent Control: 93%
[9]
  Percent Control: 74%
[10]
  Percent Control: 100%
[11]
  Percent Control: 47%
[12]
  proliferation of Neuro 2A cells: inhibited the proliferation
[13]
  Percent Control: 74%
[14]
  Percent Control: 81%
[15]
  proliferation of LNCaP prostate cancer cells: inhibited the proliferation
[16]
  Percent Control: 68%
[17]
  Percent Control: 100%
[18]
  Percent Control: 100%
[19]
  Percent Control: 98%
[20]
  Percent Control: 76%
[21]
  Percent Control: 86%
[22]
  inhibition of confluent NIH/3T3 cells: considerably less inhibition
[23]
  Percent Control: 100%
[24]
  Percent Control: 100%
[25]
  Percent Control: 80%
[26]
  Percent Control: 89%
[27]
  Percent Control: 90%
[28]
  Percent Control: 76%
[29]
  Percent Control: 71%
[30]
  Percent Control: 55%
[31]
  Percent Control: 91%
[32]
  Percent Control: 75%
[33]
  Percent Control: 93%
[34]
  Percent Control: 15%
[35]
  Percent Control: 83%
